Key:
pedal ganglia = experiment: NO release from excised pedal ganglia (NO-selective microprobe); format: cell-based, Mytilus edulis
Procedure: For the nitric oxide assay, ten pedal ganglia (per determination) dissected from M. edulis were bathed in 1 mL sterile phosphate buffered saline (PBS). […] For the opiate receptor antagonist experiments, ganglia were pretreated with naloxone for 10 minutes prior to reticuline addition. NO release was monitored with an NO-selective microprobe manufactured by World Precision Instruments (Sarasota, Fla.). The sensor was positioned approximately 100 μm above the respective tissue surface. […] The NO detection system was calibrated daily. The probe was allowed to equilibrate for 10 minutes in the incubation medium free of tissue before being transferred to vials containing the ganglia for another 5 minutes. Manipulation and handling of the ganglia was only performed with glass instruments. Data was acquired using the Apollo-4000 free radical analyzer (World Precision Instruments, Sarasota, Fla.). The experimental values were then transferred to Sigma-Plot and -Stat (Jandel, Calif.) for graphic representation and evaluation.

mu3 opiate receptor [1] = biological target: mu3 opiate receptor (Mytilus edulis, UniProt A0A8S3SM58); experiment: Displacement of 3H-dihydromorphine, pedal ganglia membrane suspension; format: binding
Sequence of mu3 opiate receptor (Mytilus edulis, UniProt A0A8S3SM58) (A0A8S3SM58 1-388): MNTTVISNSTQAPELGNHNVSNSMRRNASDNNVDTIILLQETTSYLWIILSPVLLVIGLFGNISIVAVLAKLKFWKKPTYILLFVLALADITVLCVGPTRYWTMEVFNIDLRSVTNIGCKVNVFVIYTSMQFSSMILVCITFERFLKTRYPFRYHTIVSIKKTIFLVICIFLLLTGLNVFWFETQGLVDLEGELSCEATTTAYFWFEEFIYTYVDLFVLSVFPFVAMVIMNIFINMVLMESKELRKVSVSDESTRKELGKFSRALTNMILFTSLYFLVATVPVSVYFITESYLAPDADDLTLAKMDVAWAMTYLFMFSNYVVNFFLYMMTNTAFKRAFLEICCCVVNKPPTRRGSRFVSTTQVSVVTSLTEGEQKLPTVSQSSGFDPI
Procedure: An additional 100 excised pedal ganglia and the human monocytes were separately washed and homogenized in 50 volumes of 0.32 M sucrose, pH 7.4, at 4° C. using a Brinkmann polytron (30 seconds, setting no. 5). The crude homogenate was centrifuged at 900×g for 10 minutes at 4° C., and the supernatant was reserved on ice. The whitish crude pellet was resuspended by homogenization (15 seconds, setting no. 5) in 30 volumes of 0.32 M sucrose/Tris-HCl buffer, pH 7.4, and centrifuged at 900×g for 10 minutes. The extraction procedure was repeated one more time, and the combined supernatants were centrifuged at 900×g for 10 minutes. The resulting supernatants (S1′) were used immediately. […] The P2 pellet was then re-suspended with a Dounce hand-held homogenizer (10 strokes) in 100 volumes of buffer. Binding analysis was then performed on the cell membrane suspensions.
Aliquots of membrane suspension (0.2 mL, 0.12 mg of membrane protein) were incubated in triplicate at 22° C. for 40 minutes with the appropriate radiolabeled ligand in the presence of dextrorphan (10 mM) or levorphanol (10 mM) in 10 mM Tris-HCl buffer, pH 7.4, containing 0.1% BSA and 150 mM KCl. […] The filters were rapidly washed with 2.5 mL aliquots of the incubation buffer (4° C.), containing 2% polyethylene glycol 6000 (Baker). […] Protein concentration was determined in membrane suspensions (prepared in the absence of BSA).

mu3 opiate receptor [2] = biological target: T1, mu3 opiate receptor (Homo sapiens, UniProt P35372); experiment: biochemical; format: binding; conditions: read-out: Monocytes IC50, displacement of 3H-dihydromorphine; mean +/− S.E.M., three experiments
T1 construct: An additional 100 excised pedal ganglia and the human monocytes were separately washed and homogenized; host or cells: human monocytes
T1 sequence (P35372 1-314 isoform P35372-14): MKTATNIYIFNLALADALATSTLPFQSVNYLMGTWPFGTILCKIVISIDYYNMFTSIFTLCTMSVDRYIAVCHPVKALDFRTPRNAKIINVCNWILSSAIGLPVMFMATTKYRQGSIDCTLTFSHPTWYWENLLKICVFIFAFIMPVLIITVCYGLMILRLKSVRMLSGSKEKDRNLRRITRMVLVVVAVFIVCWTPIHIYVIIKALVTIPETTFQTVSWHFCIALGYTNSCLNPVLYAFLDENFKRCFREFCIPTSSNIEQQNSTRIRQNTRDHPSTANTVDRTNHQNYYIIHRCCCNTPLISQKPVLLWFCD
Procedure: For the nitric oxide assay, ten pedal ganglia (per determination) dissected from M. edulis were bathed in 1 mL sterile phosphate buffered saline (PBS). […] NO release was monitored with an NO-selective microprobe manufactured by World Precision Instruments (Sarasota, Fla.). The sensor was positioned approximately 100 μm above the respective tissue surface. […] The NO detection system was calibrated daily. The probe was allowed to equilibrate for 10 minutes in the incubation medium free of tissue before being transferred to vials containing the ganglia for another 5 minutes. Manipulation and handling of the ganglia was only performed with glass instruments. Data was acquired using the Apollo-4000 free radical analyzer (World Precision Instruments, Sarasota, Fla.). The experimental values were then transferred to Sigma-Plot and -Stat (Jandel, Calif.) for graphic representation and evaluation. […]
Aliquots of membrane suspension (0.2 mL, 0.12 mg of membrane protein) were incubated in triplicate at 22° C. for 40 minutes with the appropriate radiolabeled ligand in the presence of dextrorphan (10 mM) or levorphanol (10 mM) in 10 mM Tris-HCl buffer, pH 7.4, containing 0.1% BSA and 150 mM KCl. […] Protein concentration was determined in membrane suspensions (prepared in the absence of BSA).

[3] = test system: Mytilus edulis pedal ganglia; experiment: Endogenous morphine levels in excised pedal ganglia incubated in vitro (HPLC, RIA); format: cell-based
NCI-H295R cells = experiment: Morphine production by NCI-H295R cells (RIA); format: cell-based, human; conditions: one half million cells, 100 ng of reticuline, 24 hours; control about 9.6±3.5
Text: Human cells (NCI-H295R) were adapted from the NCI-H295 pluripotent adrenocortical carcinoma cell line (ATCC CRL-10296), which is from a carcinoma of the adrenal cortex. The original cells were adapted to a culture medium that decreased the population doubling time from 5 days to 2 days. While the original cells grew in suspension, the adapted cells were selected to grow in a monolayer. These cells retained the ability to produce adrenal androgens and were responsive to angiotensin II and potassium ions. To propagate these cells, the culture medium was a 1:1 mixture of Dulbecco's modified Eagle's medium and Ham's F12 medium containing 15 mM HEPES, 0.00625 mg/mL insulin, 0.00625 mg/mL transferrin, 6.25 ng/mL selenium, 1.25 mg/mL bovine serum albumin, and 0.00535 mg/mL linoleic acid, 97.5%; Nu-Serum I, 2.5%. See, e.g., Rainey et al., Mol. Cell. Endocrinol., 100:45-50 (1994); Gazdar et al., Cancer Res., 50:5488-5496 (1990); and Bird et al., Endocrinology, 133:1555-1561 (1993)).
The cells were subcultured in 6 well cell culture cluster (Corning Inc.) 24 hours before the experiment. The amount of cells was determined by Microscope (Nickon inc). Various amounts of reticuline were added to the cells, and the cells were cultured with an NAPCO incubator. The incubation was terminated after 24 hours by adding 10 NHCl.

[4] = test system: human white blood cells / PMNs; experiment: Morphine production by human WBC and PMNs (HPLC, RIA); format: cell-based
[5] = test system: Mytilus edulis pedal ganglia; experiment: Ganglionic morphine levels after injection into the foot of intact animals; conditions: one hour after injection into the foot
Procedure: For in vivo precursor injection experiments, the animal's foot was injected with either reticuline or L-DOPA (0.1 and 1 μg/injection, respectively). Chemicals were injected by BD 1 cc syringes with 26 G needles. Each needle was inserted into that base of the foot just above the pedal ganglia.
For in vivo treatments, the animal's foot (20 animals per treatment) was injected with tyrosine (10^−5 M), tyramine (10^−5 M), or saline. Other animals were exposed to the enzyme inhibitors AMPT or quinidine alone or immediately following the respective foot injection. […] All chemicals were purchased from Sigma (St. Louis, Mo.).

mu3 opiate receptor [6] = conditions: 10^−6 M CTOP 10 minutes prior
Procedure: In addition, the cells were either incubated with or without 10^−6 M CTOP 10 minutes prior to adding M6G.

human saphenous veins = experiment: NO release from human saphenous veins; conditions: 10^−6 M CTOP 10 minutes before morphine
[7] = test system: SK-N-SH neuroblastoma cell line; format: cell-based, human
Procedure: Cell viability was determined via Trypan blue exclusion. An inverted light microscope (Nikon) with a phase-contrast filter was used to observe the cells. Pictures of the cells were taken via a digital camera (Optronix) attached to the microscope ocular. Images were uploaded onto ImagePro Plus Software (Applied Biosystems), where cell viability was calculated based on both the number of cells covering the field and the cells that present as dead from the stain. In addition, ImagePro Plus was used for determining cellular morphology. The area and perimeter were found and used in the formula (4π*Area)/(Perimeter)^2, resulting in a value between 0 (a straight line) and 1 (a perfect circle).

NMDA NR1 Subunit = experiment: NMDA NR1 subunit mRNA expression (RT-PCR); format: cell-based, human
Procedure: (§1) Isolation of total RNA was performed via RNA MiniPrep Kit (QIAGEN). Concentration of RNA was determined via GeneQuant II Spectrophotometer (Pharmacia Biotech) by multiplying A260 value with dilution factor and nucleic acid constant (0.04). Agarose gel electrophoresis (1%) was used to check for RNA quality.
(§2) RT and PCR reactions were performed in GeneAmp PCR System 9700 (Applied Biosystems) using reverse transcriptase and Taq DNA Polymerase. Forward and reverse gene specific-primers for various subunits of the 20S proteasome and immunoproteasome were either obtained from the literature or designed through Primer Express Software 2.0 (Applied Biosystems) (Table 4). NMDA receptor subunit primers were also designed (Table 4). NMDA receptor expression was used as a marker of neurodegenerative disease.
(§3) All primers were optimized for annealing temperatures and cycles (Table 5). Gel electrophoresis (2% agarose, 0.01% ethidium bromide) was performed and analyzed using a UV transilluminator (UVP) and GelPro Analyzer Software (Applied Biosystems). Relative band intensity was normalized with β-Actin reference gene.

NMDA NR2B Subunit = experiment: NMDA NR2B subunit mRNA expression (RT-PCR); format: cell-based, human
Procedure: as §1, §2, §3

[8] = test system: 20S Proteasome X (β5) Subunit; experiment: 20S proteasome X subunit protein (Western blot); format: cell-based, human; conditions: rotenone
Procedure: (§4) To determine protein concentrations, protein was harvested using the following buffer: 20 mM Hepes (Sigma), 100 mM NaCl (Fisher), 10 mM NaF (Sigma), 1% Triton X-100 (Sigma), 1 mM sodium orthovanadate (Sigma), 10 mM EDTA (Sigma), pH 7.4, 0.1% protease inhibitor cocktail (Sigma), and ddH2O. Homogenized samples were spun in an ultracentrifuge at 10,000G for 20 minutes at 4° C. Concentration was determined via the Bradford assay (Bio-Rad) using bovine serum albumin (BSA, Sigma) for standard curve. To eliminate any potential pipetting error, samples and standards were read in triplicate.
(§5) Western blotting was performed as follows. SDS-polyacrylamide gels (12% for separation and 5% for stacking) were made using the Mini Trans-Blot Cell (Bio-Rad). Based on the concentrations from the protein concentration determination assay, the proteins were mixed with 2× Protein Loading Buffer (0.2M DTT) for a final volume of 24 μL. Tris-Glycine Electrophoresis Buffer (1×) was used in SDS-PAGE, and proteins were separated at constant amperage (35 mA).
(§6) Subsequent protein transfer to a nitrocellulose membrane involved use of the Mini Trans-Blot Cell apparatus run at constant voltage (100V) for 40 minutes. […]
(§7) Substrate (Pierce) was administered as a means of stimulating chemiluminescence. Blots were developed and subsequently analyzed for relative band intensity using Gel-Pro software (Applied Biosystems).

26S proteasome = experiment: Chymotrypsin activity of the 26S proteasome (fluorometric); format: cell-based, human; conditions: rotenone 30 nM; morphine 5 μM; control 236±4.8
Procedure: (§8) Proteasome function assays were performed in an effort to examine the modulation in levels of protein degradation. Fluorometric assays were performed for both the chymotrypsin activity of the 26S proteasome as well as activity of the whole 20S proteasome using procedures adapted from Kotamraju et al. (Proc. Natl. Acad. Sci. USA, 100:10653-8 (2003)). Excitation at 365 nm and emission at 460 nM of the fluorogenic compound, […] (AMC), were measured using a Spectrofluoroscence Detector (McPherson).

20S proteasome = experiment: Activity of the whole 20S proteasome (fluorometric); format: cell-based, human; conditions: rotenone 30 nM; morphine 5 μM
Procedure: as §8

SH-SY5Y cells = experiment: M6G-induced NO release from SH-SY5Y cells; format: cell-based, human; conditions: 1 hour pre-treatment, 1 μM M6G
Procedure: The production of NO in SH-SY5Y cells was detected using the Apollo 4000 Free Radical Analyzer (World Precision Instruments). SH-SY5Y cells were trypsinized and cultured in a 6-well plate for 48 hours. An L-shaped amperometric NO-specific probe was connected to the Apollo Analyzer and calibrated using a SNAP+CuCl2 solution, which releases calculable amounts of NO. […] At the end of the treatment time-point, the media was removed and replaced with PBS warmed in a 37° C. bath, which is non-reactive with the probe. The probe was inserted about 1.5 mm above the cells and allowed to equilibrate for 5 minutes. […] The probe was monitored in real-time for the production of NO “spikes.” NO data was recorded using Free Radical Analyzer (World Precision Instruments). Cells were then discarded.

[9] = test system: SK-N-SH neuroblastoma cell line; experiment: Cellular morphology (Form Factor) of neuroblastoma cells; format: cell-based, human; conditions: IFNγ treatment; control 0.54±0.02
[10] = test system: 20S Proteasome LMP7 Subunit (β5i); experiment: LMP7 immunoproteasome subunit mRNA expression (RT-PCR); format: cell-based, human; conditions: IFNγ 20 ng/mL, 24 hours; control 0.29±0.01
Procedure: as §1, §2, §3

[11] = test system: Immunoproteasome LMP7 (β5i) Subunit; experiment: LMP7 polypeptide expression (Western blot); format: cell-based, human; conditions: IFNγ
Procedure: as §4, §5, §6, §7

## COc1ccc(C[C@H]2c3cc(O)c(OC)cc3CCN2C)cc1O [Reticuline, reticuline]
Pedal ganglia; ligand 10^−7 M
  NO Peak Level: 17.6 ± 3.8 nM
  NO Peak Time: 9.2 ± 1.5 min
Pedal ganglia; reticuline 10^−7 M
  delay before ganglionic NO release: three-minute delay
Pedal ganglia; reticuline 10^−7 M, morphine 10^−6 M
  duration of ganglionic NO release: 17 min
mu3 opiate receptor [1]
  affinity for the mu3 opiate receptor: does not exhibit an affinity
mu3 opiate receptor [1]; read-out: Pedal Ganglia IC50, displacement of 3H-dihydromorphine, mean +/− S.E.M., three experiments
  IC50: > 1 µM
mu3 opiate receptor [2]
  IC50: > 1 µM
[3]; 50 ng of reticuline, 1 hour, control 1.43±0.41
  endogenous morphine level in ganglia (HPLC): 6.7±0.7 ng/mg tissue wet weight
[3]; 50 ng of reticuline, mantle tissues
  morphine production in mantle tissues: did not produce detectable morphine
[3]; 100 ng of reticuline
  morphine per mg ganglion: about 5.0±0.47 ng morphine per mg ganglion
[3]; 100 ng of reticuline, one hour, control 1.33±0.61
  ganglionic morphine level (RIA): about 14.53±4.6 ng/mg
[3]; 0.5 μg of reticuline, 1 hour
  ganglionic morphine level (HPLC, FIG. 1 legend): 5 ng/mg morphine tissue wet weight
[3]; 10^−6 M (FIG. 20)
  ganglionic morphine levels after exposure: significantly enhanced morphine levels
[3]; 50 and 100 ng, 60 minutes, in vitro
  ganglionic morphine levels versus control: significantly higher
NCI-H295R cells
  morphine produced by cells: about 28±5.4 ng
[4]; P<0.001
  WBC morphine concentrations versus untreated cells: significantly increased WBC morphine concentrations
[4]; PMNs 3×10^6 cells, THP 100 μg, reticuline 50 μg, L-DOPA 100 μg, L-tyrosine 100 μg
  Morphine levels in media after the cells were removed: 2.112 ± 0.33
[4]; one-hour treatment, control 12.33±5.64
  morphine concentrations in WBC: 136.04±8.71 pg/million cells
[5]
  pedal ganglionic morphine levels after injection: significantly increased pedal ganglionic morphine levels

## CTOP
mu3 opiate receptor [6]
  effect of CTOP on M6G-induced mu3 expression: blocked by CTOP pre-treatment
Human saphenous veins
  morphine-induced NO release after CTOP pre-treatment: no NO release was detected

## C=C(C)[C@H]1Cc2c(ccc3c2O[C@@H]2COc4cc(OC)c(OC)cc4[C@@H]2C3=O)O1 [Rotenone]
[7]; human
  LD50, cellular death of neuroblastoma cells: 30 nM
[7]; rotenone 30 nM, 48-hour incubation
  confluency: about 45%
NMDA NR1 Subunit; rotenone 30 nM (LD50), control 1.57±0.072
  NR1 expression: 1.22±0.010 AU
NMDA NR1 Subunit; rotenone 40 nM
  NR1 expression: 1.21±0.028 AU
NMDA NR2B Subunit; rotenone 30 nM (LD50), control 0.98±0.02
  NR2B expression: 1.22±0.08 AU
NMDA NR2B Subunit; rotenone 40 nM
  NR2B expression: 1.49±0.02 AU
[8]
  X subunit protein band intensity: 182 AU
26S proteasome
  activity of the chymotrypsin functional 26S active site: 221 ± 4.8 pM
20S proteasome
  20S proteasome activity: Significant increase in activity of the 20S proteasome

## Aβ1-42: β-amyloid peptide (Aβ) 1-42
SH-SY5Y cells
  M6G-induced NO release after Aβ1-42 pre-treatment: dose-dependent decrease in NO release

## IFNγ: interferon used to simulate an immune response
[9]
  Form Factor (FF): 0.76±0.02
[10]
  LMP7 mRNA expression: 0.93±0.06
[11]
  LMP7 polypeptide expression: caused an increase in LMP7 polypeptide expression

Source: US9474749B2 (priority 2004, dated 2016)
